# Patent US20130005696A1, “BUFADIENOLIDE DERIVATIVES, PREPARING PROCESS THEREOF, COMPOSITION COMPRISING THE SAME AND THE USE THEREOF” (priority 2011, published 2013)
# What was measured:
# [1] = test system: human-derived breast carcinoma MDA-MB-231 xenograft; assay: Therapeutic effect against MDA-MB-231 xenograft in nude mice; format: in vivo, Balb/c nude mice; settings: QOD × 7 d
# Experimental: (§1) This experiment is to investigate the in vivo inhibitory effect of II1E-01.HCl on growth of human-derived hepatic carcinoma HepG2 cell, human-derived breast carcinoma MDA-MB-231 cell, human-derived lung carcinoma H460 cell, human-derived colon carcinoma HCT-116 cell, human-derived […] MV-4-11 cell xenografts in nude mice.
# (§2) Formulation of solvent control (5% anhydrous ethanol & 5% aqueous glucose solution): 2.5 mL anhydrous ethanol was added into a 50 mL tube, followed by addition of 47.5 mL 5% glucose solution for injection followed by shaking, and stored at room temperature before use.
# (§3) Formulation of the preparations of the compounds to be tested: formulations with concentrations of 0.4 mg/mL and 0.6 mg/mL were prepared respectively. An appropriate amount of II1E-01.HCl was weighted and put into a 50 mL tube, followed by addition of corresponding volume of solvent to get the desired concentration and mixed using a vortex mixer. After the solid was dissolved completely, the solution was subpackaged into 4 mL vials and stored at refrigerated condition (2-8° C.) until use.
# (§4) Experimental animals: Balb/c nude mice (male, six weeks old).
# 19 days after MDA-MB-231 cells were implanted, the tumor size reached about 617 mm^3. The mice bearing the tumor were grouped and administered. The groups of II1E-01.HCl were administered once every other day (QOD), and the solvent control group was administered with the solvent control solution. After completion of the experiment, the tumor weight and the inhibition rate were calculated, and the results are summarized in Table 6. The high and middle dosage groups have significant inhibitory activities against the growth of MDA-MB-231 xenograft, and the effect depends on the amount obviously.
# The tumor in this experiment had been allowed to grow to reach a relative bigger size before drug administration (the tumor size before drug administration was about 600 mm^3 while generally the tumor size was only 200-300 mm^3 before drug administration), which corresponds to a middle- or advanced-stage cancer.
# [2] = test system: human-derived lung cancer H460 xenograft; assay: Therapeutic effect against H460 xenograft in nude mice; format: in vivo, Balb/c nude mice; settings: QOD × 21 d
# Experimental: as §1, §2, §3, §4
# NCI-H460 xenograft model was established by tumor implantation. 19 days after the implantation, the tumor size reached about 210 mm^3. The mice bearing the tumor were grouped by randomized block method according to the tumor size into 3 groups, which contain 10 mice in each group and include the group of solvent control, and groups of middle (4 mg/kg) and high (6 mg/kg) dosages of the testing compound II1E-01.HCl. In the solvent control group, 5% glucose solution was administered intravenously at tail once every other day (QOD). The testing compound was administered intravenously at tail once every other day (QOD). The animals were given the drugs for three weeks, during which the growth of tumor and the body weight of the mice were observed.
# After continuously administering for 21 days (the 40th day after the implantation), the tumor weight and inhibition rate were calculated, and results are listed in Table 7.
# [3] = test system: HeLa human cervical carcinoma cell line; assay: In vitro antitumor activity assay (SRB), HeLa; format: cell-based; settings: read-out: IC50, inhibitory activity on cell proliferation of HeLa cell line
# How it was run: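 Log-phase cells attached 24 h, then exposed in triplicate to compounds (10 μM–0.1 nM, saline vehicle) for 72 h at 37 °C, 5% CO2 in RPMI-1640. After TCA fixation and SRB staining, A515 gave % growth inhibition versus saline control (blank-corrected), and IC50 was fitted from the curve.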
Compound,Inhibition Rate (%) ([1]; 2 mg/kg iv),Tumor Weight(g) Mean ± SE ([1]; 2 mg/kg iv),Inhibition Rate (%) ([1]; 4 mg/kg iv),Tumor Weight(g) Mean ± SE ([1]; 4 mg/kg iv),Inhibition Rate (%) ([1]; 6 mg/kg iv),Tumor Weight(g) Mean ± SE ([1]; 6 mg/kg iv),Tumor Weight(g) Mean ± SE ([2]; 4 mg/kg iv),"Inhibition Rate (%) ([2]; 4 mg/kg iv, 4 mg/kg)","Inhibition Rate (%) ([2]; 4 mg/kg iv, listed as II1E-01.HCl, 4 mg/kg)",Tumor Weight(g) Mean ± SE ([2]; 6 mg/kg iv),"Inhibition Rate (%) ([2]; 6 mg/kg iv, 6 mg/kg)","Inhibition Rate (%) ([2]; 6 mg/kg iv, listed as II1E-01.HCl, 6 mg/kg)",IC50 [3]
C[C@]12CC[C@H](OC(=O)NC3CCNCC3)C[C@H]1CC[C@@H]1[C@@H]2CC[C@]2(C)[C@@H](c3ccc(=O)oc3)CC[C@]12O.Cl [II1E-01•HCl],16.36%,2.6063 ± 0.2731 g,33.99%,2.0569 ± 0.1340 g,52.23%,1.4887 ± 0.1763 g,0.5125 ± 0.0307 g,61.94%,61.94%,0.3246 ± 0.0692 g,75.90%,75.90%,–
"C[C@]12CC[C@H](O)C[C@H]1CC[C@@H]1[C@@H]2CC[C@]2(C)[C@@H](c3ccc(=O)oc3)CC[C@]12O [bufalin, reference compound]",–,–,–,–,–,–,–,–,–,–,–,–,7.27 nM
